{"source": "patent US20050037923A1", "about": "“Herbicidal mixture based on 7-pyrazolybenzoxazoles” (BASF Aktiengesellschaft, priority 2001, published 2005)", "key": {"BIDPI [1]": {"tested_on": "BIDPI", "test": "Greenhouse test, post-emergence herbicidal action", "assay_type": "in vivo, hairy beggarticks", "source_text": "(§1) For the post-emergence treatment, the test plants were first grown to a height of 3 to 20 cm, depending on the plant habit, and only then treated. Here, the herbicidal compositions were suspended or emulsified in water as distribution medium and sprayed using finely distributing nozzles.\n(§2) The respective components A and B and/or C were formulated as 10% by weight strength emulsion concentrate and introduced to the spray liquor with the amount of solvent system used for applying the active compound. In the examples, the solvent used was water.\n(§3) The test period extended over 21 days. During this time, the plants were tended, and their response to the treatments with active compound was evaluated.\n(§4) The evaluation for the damage caused by the chemical compositions was carried out using a scale from 0 to 100%, compared to the untreated control plants. Here, 0 means no damage and 100 means complete destruction of the plants.\n(§5) In the examples below, the value E which is to be expected if the activity of the individual active compounds is just additive was calculated using the method of S. R. Colby (1967) “Calculating synergistic and antagonistic responses of herbicide combinations”, Weeds 15, p. 22 ff. E=X+Y—(X·Y/100) where • X=effect in percent using active compound A at an application rate a; • Y=effect in percent using active compound B at an application rate b; • E=expected effect (in %) of A+B at application rates a+b.\n(§6) The plants used in the greenhouse experiments were of the following species: […]"}, "BRAPL": {"tested_on": "BRAPL", "test": "Greenhouse test, post-emergence herbicidal action", "assay_type": "in vivo, alexandergrass", "source_text": "as §1, §2, §3, §4, §5, §6"}, "ECHCG": {"tested_on": "ECHCG", "test": "Greenhouse test, post-emergence herbicidal action", "assay_type": "in vivo, barnyardgrass", "source_text": "as §1, §2, §3, §4, §5, §6"}, "GALAP": {"tested_on": "GALAP", "test": "Greenhouse test, post-emergence herbicidal action", "assay_type": "in vivo, catchweed bedstraw", "source_text": "as §1, §2, §3, §4, §5, §6"}, "ABUTH [2]": {"tested_on": "ABUTH", "test": "Greenhouse test, post-emergence herbicidal action", "assay_type": "in vivo, velvet leaf", "conditions": "21 days", "source_text": "as §1, §2, §3, §4, §5, §6"}, "POLPE": {"tested_on": "POLPE", "test": "Greenhouse test, post-emergence herbicidal action", "assay_type": "in vivo, ladysthumb", "source_text": "as §1, §2, §3, §4, §5, §6"}, "AVEFA": {"tested_on": "AVEFA", "test": "Greenhouse test, post-emergence herbicidal action", "assay_type": "in vivo, wild oat", "source_text": "as §1, §2, §3, §4, §5, §6"}, "crop plants": {"tested_on": "crop plants", "test": "Safener action, pre-emergence, damage to crop plants", "assay_type": "in vivo", "conditions": "21 days, application rate 100 g/ha", "source_text": "(§7) For the pre-emergence treatment, the test plants were sown is pots 1-2 days later, i.e. prior to germination, the pots were sprayed with the finely distributed herbicidal compositions, which had been suspended in water.\nas §2, §4\nAs in the example above, test plants were grown, treated with the mixture according to the invention by the Pre-emergence method and, after a test period of 21 days, evaluated using a scale from 0 to 100% damage. The test plants used were crop plants.\nA safener action is present if the damage to the crop plant caused by using a mixture according to the invention which comprises a safener C) is less than the damage caused when active compound A or active compounds A and B are used without safener."}, "ABUTH [3]": {"tested_on": "ABUTH", "test": "Greenhouse test, pre-emergence herbicidal action", "assay_type": "in vivo, velvet leaf", "source_text": "as §7, §2, §3, §4, §5, §6"}, "BIDPI [4]": {"tested_on": "BIDPI", "test": "Greenhouse test, pre-emergence herbicidal action", "assay_type": "in vivo, hairy beggarticks", "source_text": "as §7, §2, §3, §4, §5, §6"}, "MATIN": {"tested_on": "MATIN", "test": "Greenhouse test, post-emergence herbicidal action", "assay_type": "in vivo, false chamomille", "conditions": "application rate 250 g/ha", "source_text": "as §1, §2, §3, §4, §5, §6"}, "POAAN": {"tested_on": "POAAN", "test": "Greenhouse test, post-emergence herbicidal action", "assay_type": "in vivo, annual bluegrass", "conditions": "application rate 250 g/ha", "source_text": "as §1, §2, §3, §4, §5, §6"}, "VERSS": {"tested_on": "VERSS", "test": "Greenhouse test, post-emergence herbicidal action", "assay_type": "in vivo, speadwell", "conditions": "application rate 250 g/ha", "source_text": "as §1, §2, §3, §4, §5, §6"}, "[5]": {"conditions": "application rate 0.49 g/ha (Example 32)"}, "[6]": {"conditions": "application rate 0.98 g/ha (Example 32)"}, "[7]": {"conditions": "application rate 62.5 g/ha, 21 days"}, "[8]": {"conditions": "application rate 125 g/ha, 21 days"}, "[9]": {"conditions": "application rate 125 g/ha (Example 28)"}, "[10]": {"conditions": "application rate 250 g/ha (Example 28)"}}, "note": "Counter-ions that a name gives are not always drawn.", "data": [{"smiles": "CNC.O=C(O)COc1ccc(Cl)cc1Cl", "note": "[2,4-D dimethylamine salt]", "values": [{"measurement": "Herbicidal action against BIDPI, Found", "setting": "BIDPI [1]; application rate 31.25 g/ha", "value": 80, "unit": "%"}, {"measurement": "Herbicidal action against BIDPI, Found", "setting": "BIDPI [1]; application rate 62.5 g/ha (Example 31)", "value": 80, "unit": "%"}, {"measurement": "Herbicidal action against BRAPL, Found", "setting": "BRAPL; application rate 31.25 g/ha", "value": 10, "unit": "%"}, {"measurement": "Herbicidal action against BRAPL, Found", "setting": "BRAPL; application rate 62.5 g/ha", "value": 15, "unit": "%"}]}, {"smiles": "CCCc1nc2c(Cl)cc(F)c(-c3nn(C)c(OC(F)F)c3Br)c2o1", "note": "[I.15]", "values": [{"measurement": "Herbicidal action against BIDPI, Found", "setting": "BIDPI [1]; application rate 0.49 g/ha", "value": 30, "unit": "%"}, {"measurement": "Herbicidal action against BIDPI, Found", "setting": "BIDPI [1]; application rate 0.98 g/ha", "value": 40, "unit": "%"}, {"measurement": "Herbicidal action against BRAPL, Found", "setting": "BRAPL; application rate 0.49 g/ha", "value": 30, "unit": "%"}, {"measurement": "Herbicidal action against BRAPL, Found", "setting": "BRAPL; application rate 0.98 g/ha", "value": 75, "unit": "%"}, {"measurement": "Herbicidal action against ECHCG, Found", "setting": "ECHCG; [5]", "value": 30, "unit": "%"}, {"measurement": "Herbicidal action against ECHCG, Found", "setting": "ECHCG; [6]", "value": 40, "unit": "%"}, {"measurement": "Herbicidal action against GALAP, Found", "setting": "GALAP; application rate 0.49 g/ha (Example 29)", "value": 40, "unit": "%"}, {"measurement": "Herbicidal action against GALAP, Found", "setting": "GALAP; application rate 0.49 g/ha (Example 30)", "value": 40, "unit": "%"}, {"measurement": "Herbicidal action against GALAP, Found", "setting": "GALAP; [5]", "value": 40, "unit": "%"}, {"measurement": "Herbicidal action against GALAP, Found", "setting": "GALAP; application rate 0.98 g/ha (Example 29)", "value": 70, "unit": "%"}, {"measurement": "Herbicidal action against GALAP, Found", "setting": "GALAP; application rate 0.98 g/ha (Example 30)", "value": 70, "unit": "%"}, {"measurement": "Herbicidal action against GALAP, Found", "setting": "GALAP; [6]", "value": 70, "unit": "%"}]}, {"smiles": "CC(C)c1nc2c(Cl)cc(Cl)c(-c3nn(C)c(OC(F)F)c3Cl)c2o1", "note": "[I.18]", "values": [{"measurement": "Herbicidal action against BIDPI, Found", "setting": "BIDPI [1]; application rate 1.95 g/ha (Example 26)", "value": 60, "unit": "%"}, {"measurement": "Herbicidal action against BIDPI, Found", "setting": "BIDPI [1]; application rate 1.95 g/ha (Example 27)", "value": 60, "unit": "%"}, {"measurement": "Herbicidal action against BIDPI, Found", "setting": "BIDPI [1]; application rate 3.91 g/ha (Example 26)", "value": 60, "unit": "%"}, {"measurement": "Herbicidal action against BIDPI, Found", "setting": "BIDPI [1]; application rate 3.91 g/ha (Example 27)", "value": 60, "unit": "%"}]}, {"smiles": "CCc1cccc(C)c1N(C(=O)CCl)[C@@H](C)COC", "note": "[S-metolachlor]", "values": [{"measurement": "Herbicidal action against GALAP, Found", "setting": "GALAP; application rate 125 g/ha (Example 29)", "value": 0, "unit": "%"}, {"measurement": "Herbicidal action against GALAP, Found", "setting": "GALAP; application rate 250 g/ha (Example 29)", "value": 20, "unit": "%"}]}, {"smiles": "CCNc1nc(Cl)nc(NC(C)C)n1", "note": "[atrazine, reference compound]", "values": [{"measurement": "Herbicidal action against ECHCG, Found", "setting": "ECHCG; [7]", "value": 45, "unit": "%"}, {"measurement": "Herbicidal action against ECHCG, Found", "setting": "ECHCG; [8]", "value": 65, "unit": "%"}]}, {"smiles": "CC(C)N1C(=O)c2ccccc2NS1(=O)=O", "note": "[bentazone sodium salt, reference compound]", "values": [{"measurement": "Herbicidal action against ABUTH, Found", "setting": "ABUTH [2]; application rate 125 g/ha", "value": 0, "unit": "%"}, {"measurement": "Herbicidal action against ABUTH, Found", "setting": "ABUTH [2]; application rate 250 g/ha", "value": 20, "unit": "%"}, {"measurement": "Herbicidal action against POLPE, Found", "setting": "POLPE; [8]", "value": 15, "unit": "%"}, {"measurement": "Herbicidal action against POLPE, Found", "setting": "POLPE; application rate 250 g/ha, 21 days", "value": 25, "unit": "%"}]}, {"smiles": "CC1(C)CON(Cc2ccccc2Cl)C1=O", "note": "[clomazone]", "values": [{"measurement": "Herbicidal action against POLPE, Found", "setting": "POLPE; application rate 125 g/ha", "value": 75, "unit": "%"}, {"measurement": "Herbicidal action against POLPE, Found", "setting": "POLPE; application rate 250 g/ha", "value": 75, "unit": "%"}]}, {"smiles": "COc1c(Cl)ccc(Cl)c1C(=O)O", "note": "[dicamba]", "values": [{"measurement": "Herbicidal action against AVEFA, Found", "setting": "AVEFA; [9]", "value": 20, "unit": "%"}, {"measurement": "Herbicidal action against AVEFA, Found", "setting": "AVEFA; [10]", "value": 20, "unit": "%"}, {"measurement": "Herbicidal action against BRAPL, Found", "setting": "BRAPL; [9]", "value": 20, "unit": "%"}, {"measurement": "Herbicidal action against BRAPL, Found", "setting": "BRAPL; [10]", "value": 20, "unit": "%"}]}, {"smiles": "C=CCN(CC=C)C(=O)C(Cl)Cl", "note": "[dichlormid]", "values": [{"measurement": "Damage to the crop plant corn (ZEAMX), cultivar Magister", "setting": "crop plants", "value": 13, "unit": "%"}, {"measurement": "Damage to the crop plant corn (ZEAMX), cultivar P3751", "setting": "crop plants", "value": 0, "unit": "%"}]}, {"smiles": "C/C(=N\\NC(=O)Nc1cc(F)cc(F)c1)c1ncccc1C(=O)O", "note": "[diflufenzopyr sodium salt]", "values": [{"measurement": "Herbicidal action against ABUTH, Found", "setting": "ABUTH [3]; application rate 62.5 g/ha", "value": 10, "unit": "%"}, {"measurement": "Herbicidal action against ABUTH, Found", "setting": "ABUTH [3]; application rate 125 g/ha", "value": 30, "unit": "%"}, {"measurement": "Herbicidal action against BIDPI, Found", "setting": "BIDPI [4]; application rate 62.5 g/ha", "value": 40, "unit": "%"}, {"measurement": "Herbicidal action against BIDPI, Found", "setting": "BIDPI [4]; application rate 125 g/ha", "value": 70, "unit": "%"}]}, {"smiles": "CC(C)N(C(=O)COc1nnc(C(F)(F)F)s1)c1ccc(F)cc1", "note": "[flufenacet]", "values": [{"measurement": "Herbicidal action against MATIN, Found", "setting": "MATIN", "value": 10, "unit": "%"}, {"measurement": "Herbicidal action against POAAN, Found", "setting": "POAAN", "value": 0, "unit": "%"}, {"measurement": "Herbicidal action against VERSS, Found", "setting": "VERSS", "value": 0, "unit": "%"}]}, {"smiles": "CP(=O)(O)CCC(N)C(=O)O", "note": "(stereo not shown) [glufosinate ammonium salt]", "values": [{"measurement": "Herbicidal action against BRAPL, Found", "setting": "BRAPL; application rate 125 g/ha (Example 17)", "value": 45, "unit": "%"}, {"measurement": "Herbicidal action against BRAPL, Found", "setting": "BRAPL; application rate 125 g/ha (Example 18)", "value": 45, "unit": "%"}]}, {"smiles": "CC(C)N.O=C(O)CNCP(=O)(O)O", "note": "[glyphosate isopropylamine salt]", "values": [{"measurement": "Herbicidal action against AVEFA, Found", "setting": "AVEFA; application rate 250 g/ha (Example 15)", "value": 40, "unit": "%"}, {"measurement": "Herbicidal action against AVEFA, Found", "setting": "AVEFA; application rate 250 g/ha (Example 16)", "value": 40, "unit": "%"}]}, {"smiles": "COCc1cnc(C2=NC(C)(C(C)C)C(=O)N2)c(C(=O)O)c1", "note": "(stereo not shown) [imazamox, reference compound]", "values": [{"measurement": "Herbicidal action against BIDPI, Found", "setting": "BIDPI [1]; application rate 31.25 g/ha, 21 days", "value": 20, "unit": "%"}, {"measurement": "Herbicidal action against BIDPI, Found", "setting": "BIDPI [1]; [7]", "value": 60, "unit": "%"}]}]}
